Test results published in article PMC9704104, “Towards safer anti-inflammatory therapy: synthesis of new thymol–pyrazole hybrids as dual COX-2/5-LOX inhibitors” (Journal of Enzyme Inhibition and Medicinal Chemistry, 2022).
Several values for one entry are separate records, joined by “and”; a condition that tells them apart may be missing. Identical values can stand only once.

System: formalin-induced rat paw oedema
Test: Formalin-induced paw oedema test (acute inflammation model)
Assay type: in vivo

Compound: Cc1ccc(C(C)C)c(O)c1C=NNC(=O)c1cc(-c2ccccc2)n(-c2ccccc2)n1 [Compound 8d, N'-(2-Hydroxy-3-isopropyl-6-methylbenzylidene)-1,5-diphenyl-1H-pyrazole-3-carbo-hydrazide]
- % Inhibition of oedema volume (4 h, individual rats 1-3, 5 mg/kg orally, 5 mg/kg): 58.10% and 50.70% and 53.10%
- Volume of oedema (ml) 4h (4 h after formalin, individual rats 1-3, 5 mg/kg orally, 5 mg/kg): 5.95 mL and 6.03 mL and 6.02 mL
- Abs diff. (4 h minus 0, individual rats 1-3, 5 mg/kg orally, 5 mg/kg): 0.93 and 1.07 and 1.0
- % Relative potency (4h) celecoxib, Mean ± SD (relative to % inhibition of celecoxib at 4 h, group mean ± SD): 149.0 ± 17.26%
- % Relative potency (4h) celecoxib (relative to % inhibition of celecoxib at 4 h, individual rats 1-3): 165.40% and 131.0% and 150.70%
- % Relative potency (4h) diclofenac, Mean ± SD (relative to % inhibition of diclofenac at 4 h, group mean ± SD): 103.7 ± 16.65%
- % Relative potency (4h) diclofenac (relative to % inhibition of diclofenac at 4 h, individual rats 1-3): 122.90% and 93.20% and 95.0%
- Volume of oedema (ml) 0 (time 0, individual rats 1-3, 5 mg/kg orally, 5 mg/kg): 5.02 mL and 4.96 mL
